# Tests used:
# CAKI-1 = test: Growth inhibition of human Caki1 cells after 48 hrs by sulforhodamine B assay; type: functional; details: CAKI-1, 48 h
# [1] = Selectivity index, ratio of TC50 for african green monkey (Cercopithecus aethiops) Vero cells to IC50 for chloroquine-sensitive Plasmodium falciparum D6; type: toxicity, cell-based
# SR = test: Growth inhibition of human SR cells after 48 hrs by sulforhodamine B assay; type: functional
# NCI-H522 = test: Growth inhibition of human NCI-H522 cells after 48 hrs by sulforhodamine B assay; type: functional; details: NCI-H522, 48 h
# BT-549 = test: Growth inhibition of human BT549 cells after 48 hrs by sulforhodamine B assay; type: functional; details: BT-549, 48 h
# UACC-62 = test: Growth inhibition of human UACC62 cells after 48 hrs by sulforhodamine B assay; type: functional; details: UACC-62, 48 h
# K562 = test: Growth inhibition of human K562 cells after 48 hrs by sulforhodamine B assay; type: functional; details: K562, 48 h
# NCI-H23 = test: Growth inhibition of human NCI-H23 cells after 48 hrs by sulforhodamine B assay; type: functional; details: NCI-H23, 48 h
# SK-MEL-2 = test: Growth inhibition of human SK-MEL-2 cells after 48 hrs by sulforhodamine B assay; type: functional; details: SK-MEL-2, 48 h
# SNB-75 = test: Growth inhibition of human SNB75 cells after 48 hrs by sulforhodamine B assay; type: functional; details: SNB-75, 48 h
# OVCAR-3 = test: Growth inhibition of human OVCAR-3 cells after 48 hrs by sulforhodamine B assay; type: functional; details: OVCAR-3, 48 h
# T47D = test: Growth inhibition of human T47D cells after 48 hrs by sulforhodamine B assay; type: functional
# MOLT-4 = test: Growth inhibition of human MOLT4 cells after 48 hrs by sulforhodamine B assay; type: functional; details: MOLT-4, 48 h
# SF-295 = test: Growth inhibition of human SF295 cells after 48 hrs by sulforhodamine B assay; type: functional; details: SF-295, 48 h
# HCT-116 = test: Growth inhibition of human HCT116 cells after 48 hrs by sulforhodamine B assay; type: functional; details: HCT-116, 48 h
# MCF7 = test: Growth inhibition of human MCF7 cells after 48 hrs by sulforhodamine B assay; type: functional; details: MCF7, 48 h
# UACC-257 = test: Growth inhibition of human UACC257 cells after 48 hrs by sulforhodamine B assay; type: functional; details: UACC-257, 48 h
# A498 = test: Growth inhibition of human A498 cells after 48 hrs by sulforhodamine B assay; type: functional; details: A498, 48 h
# SN12C = test: Growth inhibition of human SN12C cells after 48 hrs by sulforhodamine B assay; type: functional
# SK-MEL-5 = test: Growth inhibition of human SK-MEL-5 cells after 48 hrs by sulforhodamine B assay; type: functional; details: SK-MEL-5, 48 h
# SK-OV-3 = test: Growth inhibition of human SKOV3 cells after 48 hrs by sulforhodamine B assay; type: functional; details: SK-OV-3, 48 h
# HOP-92 = test: Growth inhibition of human HOP92 cells after 48 hrs by sulforhodamine B assay; type: functional; details: HOP-92, 48 h
# MDA-MB-231 = test: Growth inhibition of human MDA-MB-231 cells after 48 hrs by sulforhodamine B assay; type: functional; details: MDA-MB-231, 48 h
# NCI-H226 = test: Growth inhibition of human NCI-H226 cells after 48 hrs by sulforhodamine B assay; type: functional; details: NCI-H226, 48 h
# LOX IMVI = test: Growth inhibition of human LOXIMVI cells after 48 hrs by sulforhodamine B assay; type: functional
# EKVX = test: Growth inhibition of human EKVX cells after 48 hrs by sulforhodamine B assay; type: functional
# UO-31 = test: Growth inhibition of human UO31 cells after 48 hrs by sulforhodamine B assay; type: functional; details: UO-31, 48 h
# [2] = Growth inhibition of human Hs 578T cells after 48 hrs by sulforhodamine B assay; type: functional
# PC-3 = test: Growth inhibition of human PC3 cells after 48 hrs by sulforhodamine B assay; type: functional; details: PC-3, 48 h
# NCI-H322M = test: Growth inhibition of human NCI-H322M cells after 48 hrs by sulforhodamine B assay; type: functional
# ACHN = test: Growth inhibition of human ACHN cells after 48 hrs by sulforhodamine B assay; type: functional
# HL-60 = test: Growth inhibition of human HL-60(TB) cells after 48 hrs by sulforhodamine B assay; type: functional; details: HL-60, 48 h
# SF-268 = test: Growth inhibition of human SF268 cells after 48 hrs by sulforhodamine B assay; type: functional; details: SF-268, 48 h
# Plasmodium falciparum [3] = test: Antimalarial activity after 72 hrs against chloroquine-sensitive Plasmodium falciparum D6 infected in erythrocytes by LDH assay; type: functional, organism-based; details: D6, 72 h
# SF-539 = test: Growth inhibition of human SF539 cells after 48 hrs by sulforhodamine B assay; type: functional; details: SF-539, 48 h
# [4] = Cytotoxicity against african green monkey Vero cells after 48 hrs by neutral red assay; type: cell-based; details: chlorocebus sabaeus, read-out: TC50
# DU-145 = test: Growth inhibition of human DU145 cells after 48 hrs by sulforhodamine B assay; type: functional; details: DU-145, 48 h
# A549 = test: Growth inhibition of human A549 cells after 48 hrs by sulforhodamine B assay; type: functional; details: A549, 48 h
# MDA-N = test: Growth inhibition of human MDA-N cells after 48 hrs by sulforhodamine B assay; type: functional
# OVCAR-8 = test: Growth inhibition of human OVCAR8 cells after 48 hrs by sulforhodamine B assay; type: functional; details: OVCAR-8, 48 h
# [5] = Growth inhibition of human […] cells after 48 hrs by sulforhodamine B assay; type: functional
# KM12 = test: Growth inhibition of human KM12 cells after 48 hrs by sulforhodamine B assay; type: functional; details: KM12, 48 h
# OVCAR-4 = test: Growth inhibition of human OVCAR4 cells after 48 hrs by sulforhodamine B assay; type: functional; details: OVCAR-4, 48 h
# SW-620 = test: Growth inhibition of human SW620 cells after 48 hrs by sulforhodamine B assay; type: functional; details: SW-620, 48 h
# OVCAR-5 = test: Growth inhibition of human OVCAR5 cells after 48 hrs by sulforhodamine B assay; type: functional; details: OVCAR-5, 48 h
# NCI-H460 = test: Growth inhibition of human NCI-H460 cells after 48 hrs by sulforhodamine B assay; type: functional; details: NCI-H460, 48 h
# HCC 2998 = test: Growth inhibition of human HCC2998 cells after 48 hrs by sulforhodamine B assay; type: functional; details: HCC 2998, 48 h
# IGROV-1 = test: Growth inhibition of human IGROV1 cells after 48 hrs by sulforhodamine B assay; type: functional; details: IGROV-1, 48 h
# SNB-19 = test: Growth inhibition of human SNB19 cells after 48 hrs by sulforhodamine B assay; type: functional; details: SNB-19, 48 h
# Malme-3M = test: Growth inhibition of human MALME-3M cells after 48 hrs by sulforhodamine B assay; type: functional
# Plasmodium falciparum [6] = test: Antimalarial activity after 72 hrs against chloroquine-resistant Plasmodium falciparum W2 infected erythrocytes by LDH assay; type: functional, organism-based; details: W2, 72 h
smiles,measurement,setting,value
C[C@H]1[C@@H](OCC(=O)CO[C@H]2O[C@@H]3O[C@@]4(C)CC[C@H]5[C@H](C)CC[C@@H]([C@H]2C)[C@@]35OO4)O[C@@H]2O[C@@]3(C)CC[C@H]4[C@H](C)CC[C@@H]1[C@@]24OO3,GI50,CAKI-1,0.077 µM
same,selectivity ratio,[1],> 6800
same,GI50,SR,< 0.01 µM
same,GI50,NCI-H522,0.018 µM
same,GI50,BT-549,0.29 µM
same,GI50,UACC-62,< 0.01 µM
same,GI50,K562,< 0.01 µM
same,GI50,NCI-H23,< 0.01 µM
same,GI50,SK-MEL-2,0.031 µM
same,GI50,SNB-75,0.015 µM
same,GI50,OVCAR-3,< 0.01 µM
same,GI50,T47D,< 0.01 µM
same,GI50,MOLT-4,< 0.01 µM
same,GI50,SF-295,7.24 µM
same,GI50,HCT-116,< 0.01 µM
same,GI50,MCF7,< 0.01 µM
same,GI50,UACC-257,< 0.01 µM
same,GI50,A498,15.4 µM
same,GI50,SN12C,< 0.01 µM
same,GI50,SK-MEL-5,< 0.01 µM
same,GI50,SK-OV-3,15.8 µM
same,GI50,HOP-92,0.021 µM
same,GI50,MDA-MB-231,3.33 µM
same,GI50,NCI-H226,0.331 µM
same,GI50,LOX IMVI,< 0.01 µM
same,GI50,EKVX,0.078 µM
same,GI50,UO-31,< 0.01 µM
same,GI50,[2],16.2 µM
same,GI50,PC-3,< 0.01 µM
same,GI50,NCI-H322M,8.42 µM
same,GI50,ACHN,0.026 µM
same,GI50,HL-60,< 0.01 µM
same,GI50,SF-268,2.03 µM
same,IC50,Plasmodium falciparum [3],1.1 µM
same,GI50,SF-539,10.1 µM
same,CC50 at 48 h,[4],> 7640 µM
same,GI50,DU-145,11.2 µM
same,GI50,A549,< 0.01 µM
same,GI50,MDA-N,0.026 µM
same,GI50,OVCAR-8,< 0.01 µM
same,GI50,[5],< 0.01 µM
same,GI50,KM12,< 0.01 µM
same,GI50,OVCAR-4,0.069 µM
same,GI50,SW-620,< 0.01 µM
same,GI50,OVCAR-5,< 0.01 µM
same,GI50,NCI-H460,< 0.01 µM
same,GI50,HCC 2998,< 0.01 µM
same,GI50,IGROV-1,1.74 µM
same,GI50,SNB-19,13.3 µM
same,GI50,Malme-3M,< 0.01 µM
same,IC50,Plasmodium falciparum [6],0.3 µM
C[C@H]1[C@@H](OCC(O)CO[C@@H]2C[C@@H]3CC[C@@H](C)[C@@H]4CC[C@@]5(C)OO[C@@]34[C@H](O2)O5)O[C@@H]2O[C@@]3(C)CC[C@H]4[C@H](C)CC[C@@H]1[C@@]24OO3 (stereo partly specified),GI50,CAKI-1,0.256 µM
same,selectivity ratio,[1],> 23800
same,GI50,SR,0.178 µM
same,GI50,NCI-H522,0.521 µM
same,GI50,BT-549,0.408 µM
same,GI50,UACC-62,0.296 µM
same,GI50,K562,0.06 µM
same,GI50,NCI-H23,0.135 µM
same,GI50,SK-MEL-2,14.2 µM
same,GI50,SNB-75,8.25 µM
same,GI50,OVCAR-3,0.171 µM
same,GI50,T47D,0.027 µM
same,GI50,MOLT-4,0.298 µM
same,GI50,SF-295,9.52 µM
same,GI50,HCT-116,0.049 µM
same,GI50,MCF7,0.095 µM
same,GI50,UACC-257,0.257 µM
same,GI50,A498,0.686 µM
same,GI50,SN12C,0.263 µM
same,GI50,SK-MEL-5,0.095 µM
same,GI50,SK-OV-3,21.4 µM
same,GI50,HOP-92,0.384 µM
same,GI50,MDA-MB-231,45.8 µM
same,GI50,NCI-H226,61.7 µM
same,GI50,LOX IMVI,0.11 µM
same,GI50,EKVX,0.307 µM
same,GI50,UO-31,0.108 µM
same,GI50,[2],12.5 µM
same,GI50,PC-3,0.035 µM
same,GI50,NCI-H322M,62.5 µM
same,GI50,ACHN,0.248 µM
same,GI50,HL-60,0.062 µM
same,GI50,SF-268,13.7 µM
same,IC50,Plasmodium falciparum [3],0.3 µM
same,GI50,SF-539,8.64 µM
same,CC50 at 48 h,[4],> 7620 µM
same,GI50,DU-145,13.8 µM
same,GI50,A549,0.505 µM
same,GI50,MDA-N,0.368 µM
same,GI50,OVCAR-8,0.252 µM
same,GI50,[5],0.024 µM
same,GI50,KM12,0.166 µM
same,GI50,OVCAR-4,0.209 µM
same,GI50,SW-620,0.099 µM
same,GI50,OVCAR-5,17.7 µM
same,GI50,HCC 2998,7.02 µM
same,GI50,IGROV-1,13.1 µM
same,GI50,SNB-19,27.6 µM
same,GI50,Malme-3M,8.82 µM
same,IC50,Plasmodium falciparum [6],1.2 µM
